These results are taken from US7728146B2, “Enzyme inhibitors” (Probiodrug AG, priority 2006, dated 2010).

What is called AUC is the area under the concentration-time curve, a measure of exposure. As usually defined, the AUC(0-inf) is total exposure, with the tail of the curve extrapolated. The term AUC(0-t) denotes the area under the concentration-time curve up to a stated or last time point. For orientation: Cmax means the highest concentration seen after dosing. Broadly, the Tmax is the time from dosing to the highest level. As usually defined, the half-life is the time in which the quantity being followed falls by half. The bioavailability is the share of a dose that reaches the circulation, judged against a reference dose that is usually intravenous. One may read the IC50 as the concentration at which inhibition is half-maximal. Broadly, the Ki is the equilibrium dissociation constant of an inhibitor or competing ligand from its target. Read a low Ki as a stronger hold on the target.

A short description of data set [1]: Bioavailability studies (pharmacokinetics after oral and intraarterial administration). It counts as in vivo, rat. To be noted: for AUC / AUC(0-inf) / AUC(0-t) / Cmax / Tmax / AUC/Dose / half-life: male Wistar rats; for AUC: cross-over design; for AUC(0-inf) / AUC(0-t) / Cmax / Tmax / AUC/Dose / half-life: hydrochloride salt, Mean ± SD; for bioavailability: calculated from Mean AUC p.o. / Mean AUC i.a., read-out: F (bioavailability). The procedure:
Male Wistar rats (N=25; Crl:WI) with a body weight ranging between 300 and 350 g were purchased from Harlan Winkelmann GmbH (Borchen, Germany).
All studycompounds were used in the form of the hydrochloride salt.
One week after adaptation to the housing conditions, catheters were implanted into the carotid artery of the rats under general anaesthesia (i.p. injection of 0.25 mL/kg b.w. Rompun® [2%], BayerVital, Germany and 0.5 mL/kg b.w. Ketamin 10, Atarost GmbH & Co., Twistringen, Germany). The animals were allowed to recover for one week. The catheters were flushed with heparin-saline (100 IU/mL) three times per week.
After overnight fast, the inhibitors were administered the oral route via a feeding tube (15 g, 75 mm; Fine Science Tools, Heidelberg, Germany) and the intraarterial route via the arterial catheter. In case of intraarterial administration, the catheter was immediately flushed with 30 μL saline.
The animals were treated by a single oral dose of 3 mg/kg (5 mL/kg b.w.; treatment A) followed by a wash-out period of at least 3 days before intraarterial administration of 3 mg/kg (2 mL/kg b.w.; treatment B). The compounds were dissolved in saline to a final concentration adequate for an application of 3 mg/kg b.w.
Heparinized blood samples of 170 μL were collected in ice cooled sample tubes at −5, 0 (before medication) and at 5, 15, 30, 45, 60, 120, 240, 360 and 480 min. Blood samples in sample tubes were put shortly on ice and centrifuged thereafter (12,000 rpm for 2 min).
Plasma levels of the DP IV inhibitors were determined by measurement of plasma DP IV activity under standardized conditions using Gly-Pro-pNA as substrate. Plasma levels were calculated from the degree of inhibition using the known inhibition constants and the equation for competitive inhibition.
For determination of plasma DP IV activity, 50 μL sample in an appropriate dilution were incubated with 100 μL Hepes buffer (0.102 M, pH 7.6, I=0.319 M by KCl) and 50 μL water in a 96 well plate. Reaction was started by addition of 50 μL of a 2 mM Gly-Pro-pNA solution. Release of pNA was monitored for 20 min at 30° C. and 405 nm using a GeniousPro plate reader (Tecan). DP IV activity (deltaAbsorbtion/min) was calculated by linear regression of the time response curve. From this activity the concentration of the inhibitor was calculated using the following equation derived from the inhibitor equation for competitive inhibition.
Pharmacokinetic analyses (parameters of the individual PK profiles) and descriptive statistics were carried out using WinNonlin (Version 4.0.1, Professional). Based on plasma concentration data of inhibitors, the following model-independent pharmacokinetic variables were determined:
AUC(0-inf), AUC(0-t), Cmax, tmax, terminal half-life (t1/2) and bioavailability (F).
F (in %) was calculated from the ratio of observed AUC upon oral route of administration to the AUC upon intraarterial administration.

Another data set deals with DP9 (Homo sapiens, UniProt Q86TI2). Description: DP9 assay. It counts as biochemical. To be noted: for Selectivity DP9(IC50)/DPIV(Ki): ratio IC50 DP9 / Ki DP IV. The protocol:
(§1) Determination of IC50 values for DPII and DP9 are done similarly as described for DP IV.
For DP9 Gly Pro-AMC is used as substrate in a final concentration of 0.25 mM.

Data set [2] concerns liver cell carcinoma cell line Hep-G2. Description: Cytotoxicity screening and LD50 determination on Hep-G2 (LDH, CytoTox-One). It counts as cell-based. To be noted: for Cytotox 100 μM (%) HEPG2 / Viability 100 μM (%) HEP-G2: 24 h; for Cytotox 100 μM (%) HEPG2: LDH activity in cell culture media, lysed untreated cells = 100%; for Viability 100 μM (%) HEP-G2: LDH of lysed cells, untreated control = 100%; for Cytotox 100 μM (%) HEPG2 / Viability 100 μM (%) HEP-G2 / Observed cytotox: 100 μM; for Observed cytotox: Hep-G2, observation of the cells; for LD50 Viability HEP-G2 / LD50 cytotox HEP-G2: 8 serial dilutions, highest concentration 1 mM. A digest of the protocol:
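Hep-G2 cells (50 000/well) precultured 24 h, then compound in DMSO (final 1%) added for 24 h. Screen at 100 μM, 2 μM, 40 nM in triplicate. LDH in medium gave cytotoxicity (untreated 0%, lysed 100%); LDH of lysed cells gave viability. LD50 from 8 serial dilutions, top 1 mM.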

A further data set concerns the target DPII (Homo sapiens, UniProt Q9UHL4). Description: DPII assay. To be noted: for Selectivity DPII(IC50)/DPIV(Ki): ratio IC50 DPII / Ki DP IV. In kind it is biochemical. The protocol: as §1
For DPII instead of the HEPES buffer a 0.2 M sodium acetate buffer pH 5.5 is used. As substrate Gly-Pro-AMC is used in a final concentration of 1 mM.

Setting [3] is: Wistar (Crl:WI), rat, plasma, po, 3 mg/kg p.o., read-out: Mean AUC p.o.
Setting [4] is: Wistar (Crl:WI), rat, plasma, 3 mg/kg i.a., read-out: Mean AUC i.a.
Setting [5] is: Wistar (Crl:WI), rat, plasma, intraarterial 3 mg/kg, N = 4-6.
Setting [6] is: Wistar (Crl:WI), rat, plasma, oral 3 mg/kg, N = 5.
[7] abbreviates: male, Wistar (Crl:WI), rat, plasma, 3 mg/kg, intraarterial 3 mg/kg, N = 4-6, read-out: Half-life (converted).
The mark [8] stands for this setting: male, Wistar (Crl:WI), rat, plasma, po, 3 mg/kg, oral 3 mg/kg, N = 5, read-out: Half-life (converted).
The mark [9] stands for this setting: male, Wistar (Crl:WI), rat, plasma, po, 3 mg/kg.
The mark [10] stands for this setting: sodium acetate buffer pH 5.5, Gly-Pro-AMC 1 mM.

Where two headings read alike, the source gives them in different places.

Sequence of DP9 (Q86TI2 whole entry, species assumed): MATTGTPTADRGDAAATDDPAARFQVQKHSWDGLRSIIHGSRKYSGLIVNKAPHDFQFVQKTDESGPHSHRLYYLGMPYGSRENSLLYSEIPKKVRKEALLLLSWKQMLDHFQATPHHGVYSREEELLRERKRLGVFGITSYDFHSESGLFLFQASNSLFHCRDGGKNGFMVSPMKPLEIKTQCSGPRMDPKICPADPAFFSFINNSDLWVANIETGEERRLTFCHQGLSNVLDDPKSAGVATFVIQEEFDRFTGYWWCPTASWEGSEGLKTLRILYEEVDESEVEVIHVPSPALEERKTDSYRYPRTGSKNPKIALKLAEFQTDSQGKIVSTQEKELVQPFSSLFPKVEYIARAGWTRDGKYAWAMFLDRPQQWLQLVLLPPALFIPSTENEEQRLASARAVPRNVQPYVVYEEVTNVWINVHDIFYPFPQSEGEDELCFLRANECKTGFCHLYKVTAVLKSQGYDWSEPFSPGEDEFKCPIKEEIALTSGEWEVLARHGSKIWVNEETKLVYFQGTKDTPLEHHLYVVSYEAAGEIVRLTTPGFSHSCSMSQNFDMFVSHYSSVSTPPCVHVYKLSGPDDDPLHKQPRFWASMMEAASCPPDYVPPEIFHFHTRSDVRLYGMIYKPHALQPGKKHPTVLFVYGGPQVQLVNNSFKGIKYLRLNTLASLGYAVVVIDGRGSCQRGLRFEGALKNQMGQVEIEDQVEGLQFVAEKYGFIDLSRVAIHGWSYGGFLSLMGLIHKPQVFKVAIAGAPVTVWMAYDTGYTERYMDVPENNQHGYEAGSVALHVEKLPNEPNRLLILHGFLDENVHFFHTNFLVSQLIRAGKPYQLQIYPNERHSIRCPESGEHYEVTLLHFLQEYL

Turning to `NCc1c(-c2ccc(Cl)cc2Cl)ncn1Cc1ccccc1` [Example 24b, (1-benzyl-4-(2,4-dichlorophenyl)-1H-imidazol-5-yl)methanamine], the AUC in data set [1] (setting [3]) amounted to 390 ng·h/mL. Moreover, the AUC in data set [1] (setting [4]) is 510 ng·h/mL. Further, in data set [1] (setting [5]), the AUC(0-inf) came out at 640 ± 205 ng·h/mL, the AUC(0-t) turned out to be 510 ± 151 ng·h/mL and the Cmax amounted to 440 ± 73 ng/mL. In data set [1] (setting [6]), the AUC(0-inf) worked out at 650 ± 314 ng·h/mL, the AUC(0-t) was 390 ± 149 ng·h/mL, the Cmax stood at 130 ± 36 ng/mL and the Tmax stood at 45 ± 10.6 min. Further, in data set [1] (intraarterial 3 mg/kg, N = 4-6), the AUC/Dose was 0.18 ± 0.093 kg·µg·h/mL/mg. Further, the AUC/Dose in data set [1] (oral 3 mg/kg, N = 5) came out at 0.22 ± 0.105 kg·µg·h/mL/mg. In addition, in data set [1] (setting [7]), the half-life was 176 ± 83.3 min. Moreover, the half-life in data set [1] (setting [8]) was 290 ± 245 min. Also, the bioavailability in data set [1] (setting [9]) was 76%. Moreover, at DP9, the “Selectivity DP9(IC50)/DPIV(Ki)” value was 25,527. Further, in data set [2], the “Cytotox 100 μM (%) HEPG2” value is 5.9%, the “Viability 100 μM (%) HEP-G2” value amounted to 119.2%, the Observed cytotox is recorded as 10% spheric and the “LD50 Viability HEP-G2” value is 0.20 mM. Besides, in data set [2], the “LD50 cytotox HEP-G2” value was 0.18 mM. Also, at DPII, the “Selectivity DPII(IC50)/DPIV(Ki)” value is 6,329. At DPII (setting [10]), this compound had an IC50 of 30 µM.
For `NCc1c(-c2ccc(Cl)cc2Cl)ncn1Cc1cccnc1` [Example 121b, (4-(2,4-dichlorophenyl)-1-((pyridin-3-yl)methyl)-1H-imidazol-5-yl)methanamine], the AUC in data set [1] (setting [3]) is 230 ng·h/mL. The AUC in data set [1] (setting [4]) was 440 ng·h/mL. Also, in data set [1] (setting [5]), the AUC(0-inf) amounted to 630 ± 350 ng·h/mL, the AUC(0-t) came to 440 ± 215 ng·h/mL and the Cmax was found to be 400 ± 120 ng/mL. Further, in data set [1] (setting [6]), the AUC(0-inf) was found to be 350 ± 207 ng·h/mL, the AUC(0-t) is 230 ± 206 ng·h/mL, the Cmax stood at 110 ± 51 ng/mL and the Tmax is 27 ± 16.4 min. Besides, the AUC/Dose in data set [1] (intraarterial 3 mg/kg, N = 4-6) is 0.21 ± 0.115 kg·µg·h/mL/mg. Also, the AUC/Dose in data set [1] (oral 3 mg/kg, N = 5) is 0.12 ± 0.069 kg·µg·h/mL/mg. For the same compound, the half-life in data set [1] (setting [7]) was 119 ± 59.6 min. The half-life in data set [1] (setting [8]) is 196 ± 232 min. Further, the bioavailability in data set [1] (setting [9]) was 53%. In addition, the “Selectivity DP9(IC50)/DPIV(Ki)” value at DP9 is reported as 34,797. Further, in data set [2], the “Cytotox 100 μM (%) HEPG2” value is recorded as 0%, the “Viability 100 μM (%) HEP-G2” value was determined as 104.0%, the “LD50 Viability HEP-G2” value is 1.05 mM and the “LD50 cytotox HEP-G2” value worked out at 0.92 mM. Besides, at DPII, the “Selectivity DPII(IC50)/DPIV(Ki)” value is 41,216. For the same compound, the IC50 at DPII (values >1e−4 are extrapolated values) was 122 µM.
As for `NCc1c(-c2ccc(Cl)cc2Cl)ncn1Cc1ccccn1` [Example 39b], in data set [1] (setting [3]), the area under the curve (AUC) is 140 ng·h/mL. Moreover, the AUC in data set [1] (setting [4]) is 330 ng·h/mL. Moreover, in data set [1] (setting [5]), the AUC(0-inf) was 410 ± 191 ng·h/mL, the AUC(0-t) worked out at 330 ± 148 ng·h/mL and the Cmax is 280 ± 51 ng/mL. For the same compound, in data set [1] (setting [6]), the AUC(0-inf) is 290 ± 141 ng·h/mL, the AUC(0-t) came out at 140 ± 75 ng·h/mL, the Cmax was 80 ng/mL and the Tmax came to 24 ± 13.4 min. The half-life in data set [1] (intraarterial 3 mg/kg, N = 4-6) turned out to be 94.2 ± 68.28 min. Moreover, the AUC/Dose in data set [1] (oral 3 mg/kg, N = 5) came out at 0.10 ± 0.047 kg·µg·h/mL/mg. In addition, the half-life in data set [1] (setting [7]) was 96 min. The half-life in data set [1] (setting [8]) is 191 ± 128 min. In addition, the bioavailability in data set [1] (setting [9]) is 43%. Also, the “Selectivity DP9(IC50)/DPIV(Ki)” value on DP9 was 20,951. In data set [2], the “Cytotox 100 μM (%) HEPG2” value was 3.9%, the “Viability 100 μM (%) HEP-G2” value is on record as 115.7%, the Observed cytotox is 20% spheric and the “LD50 Viability HEP-G2” value was 0.80 mM. Besides, in data set [2], the “LD50 cytotox HEP-G2” value came to 0.74 mM. Moreover, the “Selectivity DPII(IC50)/DPIV(Ki)” value on DPII is recorded as >176,056. For the same compound, on DPII (setting [10]), the IC50 was more than 100 µM.
As for `NCc1c(-c2ccc(Cl)cc2Cl)ncn1Cc1ccsc1` [Example 130b, (4-(2,4-dichlorophenyl)-1-((thiophen-3-yl)methyl)-1H-imidazol-5-yl)methanamine], in data set [1] (setting [3]), the AUC stood at 1270 ng·h/mL. The AUC in data set [1] (setting [4]) was determined as 1680 ng·h/mL. In addition, in data set [1] (setting [5]), the AUC(0-inf) amounted to 2470 ± 1440 ng·h/mL, the area under the curve AUC(0-t) was found to be 1680 ± 516 ng·h/mL and the Cmax stood at 1160 ± 470 ng/mL. Besides, in data set [1] (setting [6]), the AUC(0-inf) stood at 2330 ± 1180 ng·h/mL, the AUC(0-t) worked out at 1270 ± 618 ng·h/mL, the Cmax worked out at 300 ng/mL and the Tmax was determined as 33 ± 19.6 min. Further, the half-life in data set [1] (intraarterial 3 mg/kg, N = 4-6) came to 240 ± 138.5 min. Further, the AUC/Dose in data set [1] (oral 3 mg/kg, N = 5) was determined as 0.78 ± 0.394 kg·µg·h/mL/mg. In addition, in data set [1] (setting [7]), the half-life is 330 min. In addition, the half-life in data set [1] (setting [8]) is 329 ± 91.1 min. In addition, the bioavailability in data set [1] (setting [9]) was 76%. For the same compound, at DP9, the Ki worked out at 21.5 µM and the “Selectivity DP9(IC50)/DPIV(Ki)” value is listed as 12,653. Also, the IC50 against DP9 (Gly Pro-AMC 0.25 mM) was 97.3 µM. Also, in data set [2], the “LD50 Viability HEP-G2” value is 0.24 mM and the “LD50 cytotox HEP-G2” value came out at 0.21 mM. Further, on DPII, affinity was put at a Ki of 3.84 µM and the “Selectivity DPII(IC50)/DPIV(Ki)” value was 186. Half-maximal inhibition on DPII (setting [10]) (IC50) required 1.43 µM.
